Test results published in patent US20040186022A1, “Enhanced herbicides” (priority 1999, published 2004).
Blank lines part the entries; values can stand above or below the compound they belong to.

What was measured:
[1] = system: lambsquarter, velvetleaf, foxtail, nutsedge and potatoes; test: Succinic acid enhancement of oleic acid/sodium salicylate herbicidal activity (spray to drip); type: in vivo
Description: (§1) The herbicides were applied in the “spray to drip” amount or at a calibrated 20-60 gallons/acre. “Spray to drip” is an uncalibrated application of fluid to foliage, where sufficient spray volume is used to sufficiently saturate the foliage surface until excess fluid begins to drip from the foliage.

[2] = system: 60 G/a: lambsquarter, foxtail and velvetleaf; spray to drip: snapbeans, corn and tomatoes; test: Succinic acid enhancement of oleic acid/sodium salicylate herbicidal activity (60 G/a and spray to drip); type: in vivo
Description: as §1

[3] = system: 60 G/a: velvetleaf, black nightshade, redroot pigweed, foxtail and snapbeans; spray to drip: black nightshade, velvetleaf, foxtail and snapbeans; test: Efficacy of 1.5% succinic acid with oleic, caprylic or pelargonic acid in an emulsification system (Emsorb 6900); type: in vivo; parameters: Injury rating, total score for 2 evaluation, Spray to drip / Injury rating, total score for 2 evaluation, Total Rating: scale not given here
Description: as §1

mixed weed varieties = test: Field trial comparisons of caprylic/capric and pelargonic acids on mixed weed varieties (Example 57); type: in vivo; conditions: rating 1-5 for each of 2 plots per treatment group, 5 = complete desiccation; grasses (dominant), dandelion, pigweed, plantain and Canadian thistle
Description: as §1

[4] = system: mixed weed varieties; Canadian thistle; test: Field trial comparisons of caprylic/capric and pelargonic acids on mixed weed varieties (Example 58); type: in vivo; conditions: rating 1-5 for each of 2 plots per treatment group, 5 = complete desiccation
Description: as §1

Redwood pigweed = test: Field trial comparisons of caprylic/capric and pelargonic acids, redroot pigweed (Example 58); type: in vivo; conditions: rating 1-5 for each of 2 plots per treatment group, 5 = complete desiccation
soybeans [5] = test: Synergistic relationships between succinic acid and caprylic acid at different application rates, testing soybeans; type: in vivo; conditions: 2 days after a single foliar application, average of 2 sites, soybean Stine 2250; for Overall Effect: 5 equals profound desiccation
Description: as §1

Turf = test: Synergistic relationships between succinic acid and caprylic acid (or sodium salicylate), testing turf; type: in vivo; conditions: 2 days after a single foliar application, 5 equals profound desiccation
Description: as §1

Turf and Covergrass = test: Effects of various compounds on caprylic acid, testing turf and covergrass; type: in vivo; conditions: 1, 3, 6, 7 and 11 days after a single foliar application at two independent sites, 5 equals profound desiccation
Description: as §1

Turf and Shrub Foliage [6] = test: Effects of various compounds on caprylic acid, testing turf and shrub foliage; type: in vivo; conditions: 3, 4, 6 and 7 days after a single foliar application, 5 equals profound desiccation
Description: as §1

[7] = Measurement of pH values for test desiccants (Example 55); type: physicochemical
[8] = Measurement of pH values for test desiccants (Example 56); type: physicochemical
Turf and Shrub Foliage [9] = conditions: 1, 2, 4 and 7 days after a single foliar application, 5 equals profound desiccation
Description: as §1

soybeans [10] = test: Synergistic relationships: succinic acid + caprylic acid, succinic acid + sodium salicylate, testing soybeans; type: in vivo; conditions: 3 days after a single foliar application, soybean Stine 2250
Description: as §1

Cotton = conditions: 2 days after a single foliar application
Description: as §1

[11] = system: 60 G/a: redroot pigweed, velvetleaf, snapbeans, cotton and potatoes; spray to drip: black nightshade, lambsquarter, foxtail and snapbeans; conditions: footnote
Description: as §1

[12] = system: 60 G/a: redroot pigweed, foxtail and velvetleaf; spray to drip: foxtail, dry beans and pigweed; test: Herbicidal activity: caprylic acid and succinic acid +/- ammonium sulfate; type: in vivo; conditions: footnote
Description: as §1

[13] = system: cotton plants, DeltaPine NuCotn 33-b, open boll; test: Synergistic relationships between 5% caprylic/capric (c/c) and succinic acid: desiccation of cotton plants; type: in vivo; conditions: footnote
Description: (§2) The herbicides were applied in the “spray to drip” amount or at a calibrated 20-60 gallons/acre. “Spray to drip” is an uncalibrated application of fluid to foliage, where sufficient spray volume is used to sufficiently saturate the foliage surface until excess fluid begins to drip from the foliage. In general, about 5 to 200 gallons/acre, preferably 20-100 gallons/acre can be effective.

[14] = system: cotton (DeltaPine NuCotn 33b), potatoes (Snowden), pigweed, sudan grass, wheat, foxtail, dry beans and velvetleaf; test: Synergistic relationships between 5% caprylic/capric (c/c) and succinic acid; type: in vivo; conditions: footnote
Description: as §2

[15] = system: Cotton (DeltaPine NuCotn 33b); test: Synergistic relationship between caprylic/capric (c/c) and succinic acid as harvest aids, cotton; type: in vivo; conditions: footnote; cotton and potatoes
Description: as §2

[16] = system: cotton (DeltaPine NuCotn 33b) foliage; test: Herbicidal activity on cotton foliage: succinic acid and caprylic/capric acid (c/c) combinations; type: in vivo; conditions: footnote
Description: as §2

[17] = system: 60 G/a: nightshade, pigweed, foxtail barnyard grass, sudan grass and cotton (DeltaPine NuCotn 33b); spray to drip: Kentucky bluegrass, nutsedge, barnyard …; test: Herbicidal activities: succinic acid and caprylic/capric acid (c/c) combinations; type: in vivo; conditions: footnote
Description: as §2

[18] = system: 40 G/a: crab grass, chickweed and common lambsquarter; 60 G/a: redtop, pigweed, foxtail; spray to drip: barnyard grass, foxtail, sudan grass and nutsedge; test: Herbicidal combinations of caprylic/capric (c/c) or pelargonic acid with equimolar succinic acid and ammonium succinate, on weed varieties; type: in vivo; conditions: footnote
[19] = system: Kentucky bluegrass, barnyard grass, crab grass, pigweed, redtop, nutsedge, wheat and foxtail; test: Enhancement of RoundUp Ultra (+/- ammonium sulfate) by succinic acid, 1 pint/acre, no surfactant; type: in vivo; conditions: footnote
Description: as §1

[20] = system: barnyard grass, green foxtail, sudan grass and pigweed; test: Enhancement of RoundUp Ultra (+/- ammonium sulfate) by succinic acid, 1 pint/acre, with Sylgard 309; type: in vivo; conditions: footnote
Description: as §1

[21] = system: sudan grass, green foxtail, barnyard grass and pigweed; test: Enhancement of RoundUp Ultra (+/- ammonium sulfate) by succinic acid, 1 quart per acre; type: in vivo; conditions: footnote
Description: as §1

Structure (SMILES): CCCCCCCC/C=C\CCCCCCCC(=O)O [2% oleic acid, oleic acid]
Total injury rating (sum over pots and evaluations) ([1]; rating 1-5 per pot, two evaluations, 50% acetone, 0.3% Sylgard 309): 26.4 | Injury rating, Average rating per pot ([1]; scale 1-5, spray to drip): 2.2 | Total Injury rating, Total ([2]; 60 G/a plus spray to drip): 45.8 | Total Injury rating, 60 G/a ([2]; 60 G/a, lambsquarter, foxtail and velvetleaf, rating 1-5 per pot, two evaluations): 23.5 | Average rating per pot ([2]; scale 1-5, 60 G/a and spray to drip): 1.91

Structure (SMILES): CCCCCCCCC(=O)O [3% pelargonic, pelargonic acid]
Injury rating, total score for 2 evaluation, Total Rating ([3]; 60 G/a plus spray to drip): 122.9 | Injury rating, total score for 2 evaluation, 60 G/a ([3]; 60 G/a, rating 1-5 per pot, 1% Emsorb, 0.3% Hasten): 85.3 | Average rating per pot ([3]; scale 1-5): 4.39 | Injury rating, total score for 2 evaluation, Spray to drip ([3]; spray to drip): 37.6 | Average injury rating per plot (mixed weed varieties): 4.175 | Average injury rating per plot [4]: 4.03

Structure (SMILES): CCCCCCCCC(=O)O [6% pelargonic]
Average injury rating per plot (Redwood pigweed): 4.35

pH Value [7]: 3.93 | pH Value [8]: 3.85
Structure (SMILES): CCCCCCCC(=O)O [Caprylic Acid (1.0%)]
Foliage Affected (%) (soybeans [5]): 22.3% | Overall Effect (soybeans [5]): 4 | Overall Effect (Turf): 2 | Overall Effect, 10 Evaluations (average) (Turf and Covergrass): 2.45 | Overall Effect, 29 Evaluations (average) (Turf and Shrub Foliage [6]): 1.05

Structure (SMILES): O=C([O-])c1ccccc1O.[Na+] [Sodium Salicylate (1%)]
Overall effect, 17 evaluations (average) (Turf and Shrub Foliage [9]): 1.35 | Foliage Affected (%) (soybeans [10]): 15-20% | Overall Effect (soybeans [10]; 5 equals profound desiccation): 1.5

Structure (SMILES): O=C([O-])c1ccccc1O.[Na+] [Sodium Salicylate (1.0%)]
Foliage Affected (%) (Cotton): <70% | Overall Effect (Turf): 1.5 | pH Value [7]: 5.63

Structure (SMILES): O=C(O)CCC(=O)O [Succinic Acid (1.0%)]
Foliage Affected (%) (Cotton): No effect | Foliage Affected (%) (soybeans [5]): 0% | Overall Effect (soybeans [5]): 0 | pH Value [7]: 1.85

Structure (SMILES): O=C(O)CCC(=O)O [Succinic Acid (2%)]
Overall effect, 17 evaluations (average) (Turf and Shrub Foliage [9]): 0.24

Structure (SMILES): O=C(O)CCC(=O)O [succinic acid]
Rating of succinic acid alone [11]: Succinic acid, alone, had a rating of zero. Succinic acid was synergistic with oleic, caprylic and pelargonic acids | Rating of succinic acid alone ([3]; footnote): Succinic acid, alone, had a rating of zero. Succinic acid was synergistic with oleic, caprylic and pelargonic acids | Rating of succinic acid alone [12]: Succinic acid, alone, had a rating of zero. Caprylic acid + succinic acid was synergistic | Rating of succinic acid alone [13]: Treatment of plants with succinic acid, alone, had a rating of zero | Rating of succinic acid alone [14]: Treatment of plants with succinic acid, alone, had a rating of zero | Rating of succinic acid alone [15]: Treatment of plants with succinic acid, alone, had a rating of zero | Rating of succinic acid tested alone [16]: Since succinic acid tested alone had a rating of zero, caprylic/capric + succinic acid was synergistic | Rating of succinic acid alone [17]: Since succinic acid, alone had a rating of zero, caprylic/capric + succinic acid was synergistic | Rating of additive tested alone [18]: Since succinic acid (or ammonium succinate) tested alone had a rating of zero, pelargonic acid (or c/c) + succinic acid (or ammonium succinate) were synergistic. The exception was: 3% pelargonic acid + 1.26% ammonium succinate | Rating of succinic acid tested alone [19]: Succinic acid tested alone had a rating of zero. RoundUp Ultra, alone or RoundUp Ultra + ammonia sulfate were synergistic with succinic acid | Rating of succinic acid tested alone [20]: Succinic acid tested alone had a rating of zero. RoundUp Ultra, alone or RoundUp Ultra + ammonium sulfate were synergistic with succinic acid. | Rating of succinic acid tested alone [21]: Succinic acid tested alone had a rating of zero. RoundUp Ultra, alone or RoundUp Ultra + ammonium sulfate were synergistic with succinic acid
